Reference: PubChem BioAssay (NCI)
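Following 48 hours of exposure in 96-well plates, responses at five concentrations were used to interpolate endpoints linearly. GI50 = concentration required for 50% inhibition of growth. Definition used: TGI = concentration required for complete inhibition of growth.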

How the values were obtained:
Assay in all cases: NCI tumour cell line growth inhibition, 48 h
[1] = system: RXF 393 renal
[2] = system: A498 renal
[3] = system: MOLT-4 leukemia
[4] = system: CCRF-CEM leukemia
[5] = system: UACC-257 melanoma
[6] = system: ACHN renal
[7] = system: NCI-H522 lung
[8] = system: HL-60(TB) leukemia
[9] = system: MDA-MB-435
[10] = system: T-47D breast

SMILES	TGI [1] [µM]	TGI [2] [µM]	TGI [3] [µM]	TGI [4] [µM]	TGI [5] [µM]	TGI [6] [µM]	TGI [7] [µM]	TGI [8] [µM]	TGI [9] [µM]	TGI [10] [µM]	GI50 [9] [µM]	GI50 [1] [µM]	GI50 [2] [µM]	GI50 [3] [µM]	GI50 [5] [µM]	GI50 [7] [µM]	GI50 [8] [µM]	GI50 [6] [µM]	GI50 [10] [µM]	GI50 [4] [µM]
CSc1nc(SC)c2c(C(N)=S)[nH]nc2n1	61	71.7	99.3	69.5	52.5	74.7	–	–	–	–	–	–	–	–	–	–	–	–	–	–
COC(=O)c1ccc(NC(=O)c2cc(OC)c(OC)c(OC)c2)cc1	77.2	> 100	> 100	> 100	–	> 100	3.58	4.8	–	–	–	–	–	–	–	–	–	–	–	–
CCOC(=O)c1cc2c(cn1)[nH]c1cccc(N)c12	> 100	–	> 100	> 100	> 100	> 100	> 100	28.6	–	–	–	–	–	–	–	–	–	–	–	–
COc1cc(C=O)c(-c2cc3c(cc2C2(C)OCCS2)OCO3)c(OC)c1OC (stereo unspecified)	46.9	23.9	> 239	> 160	43.4	> 99.1	13	82.1	–	–	–	–	–	–	–	–	–	–	–	–
CC(=O)C1COC(O)C1C (stereo unspecified)	–	> 100	99.2	> 100	> 100	80.9	–	39.7	30.2	> 100	–	–	–	–	–	–	–	–	–	–
CCCCN=C(NC#N)N(Cc1ccccc1)Cc1ccccc1	65.5	63.7	48.5	49.2	64.9	98.8	31.1	49.6	–	–	–	–	–	–	–	–	–	–	–	–
O=C1C2CC=CCC2C(=O)C12CCc1ccccc12 (stereo unspecified)	> 100	–	–	> 100	–	> 100	–	> 100	–	–	–	–	–	–	–	–	–	–	–	–
Cc1cc(Oc2cnc(=O)[nH]c2)cs1	–	> 100	> 100	> 100	> 100	> 100	> 100	> 100	> 100	> 100	–	–	–	–	–	–	–	–	–	–
CC1(C)CCC[C@]2(C)c3cc(O)ccc3CC[C@@H]12	35.1	29.7	67.3	–	36	33.5	47.4	48.5	21	–	6.65	16.1	16.2	11.7	19.6	21.5	16	18.1	–	–
Cc1ccc(C(=O)N2c3ccccc3N(C)n3cccc3C2CC(=O)O)cc1 (stereo unspecified)	> 100	> 100	> 100	> 100	> 100	> 100	> 100	> 100	–	–	–	–	–	–	–	–	–	–	–	–
O=C(NC12CC3CC(CC(C3)C1)C2)C(=O)c1c[nH]c2ccc([N+](=O)[O-])cc12	> 94.6	98	> 100	> 100	> 100	> 100	> 100	> 100	–	–	–	–	–	–	–	–	–	–	–	–
N#Cc1ccc(Nc2cnc3ccc(N)cc3n2)cc1	> 100	–	> 100	> 100	> 100	> 100	> 100	> 100	–	–	–	–	–	–	–	–	–	–	–	–
CC(C)N1CCC2(CC1)NNc1ncccc1-n1cccc12	–	–	> 100	> 100	> 100	> 100	> 100	> 100	–	–	–	–	–	–	–	–	–	–	–	–
C[C@]1(C(=O)O)N[C@H](C(=O)O)CS1	> 1000	–	–	> 1000	> 1000	> 1000	> 1000	–	> 1000	> 1000	> 1000	> 1000	–	–	> 1000	> 1000	–	> 1000	> 1000	> 1000
CC(C)(O)[C@@H]1CC[C@@]2(C)CCC[C@H](O)[C@H]2C1	–	> 100	> 100	> 100	> 100	> 100	> 100	> 100	–	–	–	–	–	–	–	–	–	–	–	–
CN1CCN(C(=O)c2c(NC(=O)NS(=O)(=O)c3ccccc3)sc3c2CCCCC3)CC1	> 100	65.8	> 100	> 100	> 100	> 100	98.6	> 100	67.8	–	26.2	34	28.8	> 100	35.6	30.4	48.2	30.7	–	32.8
NC(CC(=O)Nc1ccc(Cl)cc1)=Nc1ccccc1	> 100	> 100	> 100	–	> 100	> 100	> 100	> 100	–	–	–	–	–	–	–	–	–	–	–	–
Cc1ccc(C(=O)N2CCN(C(=O)c3ccc(C)cc3)c3ccccc32)cc1	8.43	> 74.1	> 46.4	> 100	> 100	> 100	5.96	4.21	–	> 100	–	–	–	–	–	–	–	–	–	–
COC(=O)[C@@]1(O)CC(C)C=C1C=O (stereo partly specified)	42.9	> 100	> 100	> 100	> 100	> 100	94.9	51.6	–	–	–	–	–	–	–	–	–	–	–	–
O=c1cc(-c2ccccc2)nc(/C=C(\O)c2ccncc2)n1-c1ccccc1	> 100	> 100	–	> 100	> 100	> 100	> 100	> 100	–	–	–	–	–	–	–	–	–	–	–	–
Nc1nc(NC2C=C(CO)C(O)C2O)c([N+](=O)[O-])c(=O)[nH]1 (stereo unspecified)	> 100	> 100	> 100	> 100	> 100	> 100	> 100	–	–	–	–	–	–	–	–	–	–	–	–	–
COc1cc([C@H]2c3cc4c(cc3[C@H](NCc3ccc([N+](=O)[O-])cc3)C3COC(=O)[C@H]32)OCO4)cc(OC)c1O (stereo partly specified)	> 64.6	2.67	> 100	> 100	> 81.8	2.32	–	–	–	–	–	–	–	–	–	–	–	–	–	–
CC(C)(c1ccc(Oc2ccc(C#N)c(C#N)c2)cc1)c1ccc(Oc2ccc(C#N)c(C#N)c2)cc1	> 100	> 100	> 100	> 100	–	> 100	> 100	> 100	–	–	–	> 100	> 100	> 100	–	> 100	> 100	> 100	–	> 100
COC1=C2C[C@H](O)C(C)C[C@@]2(OC)OC1=O (stereo partly specified)	> 100	> 100	> 100	> 100	> 100	–	> 100	> 100	–	–	–	–	–	–	–	–	–	–	–	–
